{"source": "patent US20070141091A1", "about": "“BIGUANIDE OINTMENT AND METHOD OF TREATMENT AND PREVENTION OF INFECTIONS” (priority 2005, published 2007)", "key": {"Adenovirus Type-19": {"tested_on": "Adenovirus Type-19", "assay": "Viral Suspension Assay, Adenovirus Type-19", "format": "cell-based", "details": "for Percent Reduction (%) Adenovirus type 19: 1, 2, 5 and 10 minutes exposure", "protocol": "(§1) The Viral Suspension Assay was used to evaluate the antiviral properties of Alexidine against Adenovirus Type-4, Adenovirus Type-8 and Adenovirus Type-19 and Cytomegalovirus when exposed in suspension for 1, 2, 5, and 10 minutes. The presence of virus (infectivity) was determined by monitoring the virus specific cytopathic effect (CPE) on an appropriate indicator cell line, rabbit kidney. Results are reported as Percent (%) Reduction in virus titer as compared to the corresponding virus control titer (Table 1). The titer of the virus controls were 7.5 log10 following the one minute exposure time; 7.0 log10 following the two minute exposure time; and 7.75 log10 following both the five and ten minute exposure times."}, "Adenovirus Type-8": {"tested_on": "Adenovirus Type-8", "assay": "Viral Suspension Assay, Adenovirus Type-8", "format": "cell-based", "protocol": "as §1"}, "Cytomegalovirus": {"tested_on": "Cytomegalovirus", "assay": "Viral Suspension Assay, Cytomegalovirus", "format": "cell-based", "protocol": "as §1"}, "[1]": {"tested_on": "Herpes simplex virus type 1", "assay": "HSV-1 Viral Suspension Assay", "format": "cell-based", "protocol": "as §1, with “Herpes simplex virus type 1” for “Adenovirus Type-4, Adenovirus Type-8 and Adenovirus Type-19 and Cytomegalovirus”"}, "Adenovirus Type-4": {"tested_on": "Adenovirus Type-4", "assay": "Viral Suspension Assay, Adenovirus Type-4", "format": "cell-based", "protocol": "as §1"}, "Acanthamoeba keratitis [2]": {"tested_on": "Acanthamoeba keratitis", "details": "in combination with propamidine isothionate (Brolene), hexamidine (Desomodine), or neomycin; cited from earlier work"}, "Acanthamoeba keratitis [3]": {"tested_on": "Acanthamoeba keratitis", "details": "bilateral case, one treatment per eye; cited from earlier work"}, "[4]": {"tested_on": "experimental Aspergillus keratitis", "details": "0.02%; cited from earlier work"}, "[5]": {"details": "Alexidine 30 ppm, 1 minute exposure"}, "[6]": {"details": "Alexidine 30 ppm, 2 minutes exposure"}, "[7]": {"details": "Alexidine 30 ppm, 5 minutes exposure"}, "[8]": {"details": "Alexidine 30 ppm, 10 minutes exposure"}, "[9]": {"details": "Alexidine 99 ppm, 1 minute exposure"}, "[10]": {"details": "Alexidine 99 ppm, 2 minutes exposure"}, "[11]": {"details": "Alexidine 99 ppm, 5 minutes exposure"}, "[12]": {"details": "Alexidine 99 ppm, 10 minutes exposure"}}, "data": [{"molecule": "CCCCC(CC)CNC(=N)NC(=N)NCCCCCCNC(=N)NC(=N)NCC(CC)CCCC", "note": "(centres unmarked) [Alexidine, 1,1′-Hexamethylene-bis [5-(2-ethylhexyl)biguanide]]", "values": [{"measurement": "effectiveness against the tested strain of Adenovirus Type-19, in words", "setting": "Adenovirus Type-19", "result": "did not appear to be effective"}, {"measurement": "Percent Reduction (%) Adenovirus type 19", "setting": "Adenovirus Type-19; Alexidine 30 ppm", "result": "No reduction"}, {"measurement": "Percent Reduction (%) Adenovirus type 19", "setting": "Adenovirus Type-19; Alexidine 99 ppm", "result": "No reduction"}, {"measurement": "Percent Reduction (%) Adenovirus type 8", "setting": "Adenovirus Type-8; [5]", "result": 96.8, "unit": "%"}, {"measurement": "Percent Reduction (%) Adenovirus type 8", "setting": "Adenovirus Type-8; [6]", "result": 94.4, "unit": "%"}, {"measurement": "Percent Reduction (%) Adenovirus type 8", "setting": "Adenovirus Type-8; [7]", "result": 82.2, "unit": "%"}, {"measurement": "Percent Reduction (%) Adenovirus type 8", "setting": "Adenovirus Type-8; [8]", "result": 90.0, "unit": "%"}, {"measurement": "Percent Reduction (%) Adenovirus type 8", "setting": "Adenovirus Type-8; [9]", "result": 82.2, "unit": "%"}, {"measurement": "Percent Reduction (%) Adenovirus type 8", "setting": "Adenovirus Type-8; [10]", "result": 82.2, "unit": "%"}, {"measurement": "Percent Reduction (%) Adenovirus type 8", "setting": "Adenovirus Type-8; [11]", "result": 90.0, "unit": "%"}, {"measurement": "Percent Reduction (%) Adenovirus type 8", "setting": "Adenovirus Type-8; [12]", "result": 90.0, "unit": "%"}, {"measurement": "effectiveness against Adenovirus Type-8, in words", "setting": "Adenovirus Type-8; at both 30 ppm and 99 ppm", "result": "somewhat effective"}, {"measurement": "Percent Reduction (%) Cytomegalovirus", "setting": "Cytomegalovirus; [5]", "result": 43.8, "unit": "%"}, {"measurement": "Percent Reduction (%) Cytomegalovirus", "setting": "Cytomegalovirus; [6]", "result": 68.4, "unit": "%"}, {"measurement": "Percent Reduction (%) Cytomegalovirus", "setting": "Cytomegalovirus; [8]", "result": 43.8, "unit": "%"}, {"measurement": "Percent Reduction (%) Cytomegalovirus", "setting": "Cytomegalovirus; [9]", "result": 98.2, "unit": "%"}, {"measurement": "Percent Reduction (%) Cytomegalovirus", "setting": "Cytomegalovirus; [10]", "result": 99.0, "unit": "%"}, {"measurement": "Percent Reduction (%) Cytomegalovirus", "setting": "Cytomegalovirus; [11]", "result": 99.8, "unit": "%"}, {"measurement": "Percent Reduction (%) Cytomegalovirus", "setting": "Cytomegalovirus; [12]", "result": 99.98, "unit": "%"}, {"measurement": "effectiveness against Cytomegalovirus, in words", "setting": "Cytomegalovirus; at both 30 ppm and 99 ppm", "result": "somewhat effective"}, {"measurement": "antimicrobial potency against Herpes Simplex-1, summary in words", "setting": "[1]", "result": "potent antimicrobial agent"}, {"measurement": "Percent Reduction of Herpes simplex virus type 1", "setting": "[1]; Alexidine 30 ppm, 1 minute exposure in suspension, vs virus control titer", "result": 99.99, "unit": "%"}, {"measurement": "Percent Reduction of Herpes simplex virus type 1", "setting": "[1]; [6]", "result": 99.99, "unit": "%"}, {"measurement": "Percent Reduction of Herpes simplex virus type 1", "setting": "[1]; [7]", "result": 99.9994, "unit": "%"}, {"measurement": "Percent Reduction of Herpes simplex virus type 1", "setting": "[1]; [8]", "result": "≧100%"}, {"measurement": "Percent Reduction of Herpes simplex virus type 1", "setting": "[1]; [9]", "result": 99.999, "unit": "%"}, {"measurement": "Percent Reduction of Herpes simplex virus type 1", "setting": "[1]; [10]", "result": 99.994, "unit": "%"}, {"measurement": "Percent Reduction of Herpes simplex virus type 1", "setting": "[1]; [11]", "result": 99.9999, "unit": "%"}, {"measurement": "Percent Reduction of Herpes simplex virus type 1", "setting": "[1]; [12]", "result": "≧100%"}, {"measurement": "effectiveness against herpes simplex type-1 virus (HSV-1), in words", "setting": "[1]; at both 30 ppm and 99 ppm", "result": "effective agents"}, {"measurement": "Percent Reduction (%) Adenovirus type 4", "setting": "Adenovirus Type-4; [5]", "result": 43.8, "unit": "%"}, {"measurement": "Percent Reduction (%) Adenovirus type 4", "setting": "Adenovirus Type-4; [7]", "result": 82.2, "unit": "%"}, {"measurement": "Percent Reduction (%) Adenovirus type 4", "setting": "Adenovirus Type-4; [8]", "result": 68.4, "unit": "%"}, {"measurement": "Percent Reduction (%) Adenovirus type 4", "setting": "Adenovirus Type-4; [9]", "result": 68.4, "unit": "%"}, {"measurement": "Percent Reduction (%) Adenovirus type 4", "setting": "Adenovirus Type-4; [11]", "result": 43.8, "unit": "%"}, {"measurement": "Percent Reduction (%) Adenovirus type 4", "setting": "Adenovirus Type-4; [12]", "result": 68.4, "unit": "%"}, {"measurement": "effectiveness against Adenovirus Type-4, in words", "setting": "Adenovirus Type-4; at both 30 ppm and 99 ppm", "result": "somewhat effective"}]}, {"molecule": "N=C(NCCCCCCNC(=N)NC(=N)Nc1ccc(Cl)cc1)NC(=N)Nc1ccc(Cl)cc1", "note": "[chlorhexidine gluconate, 1,1′-hexamethylene-bis[5-(p-chlorophenyl)biguanide]]", "values": [{"measurement": "response of Acanthamoeba keratitis to treatment", "setting": "Acanthamoeba keratitis [2]", "result": "respond well"}]}, {"molecule": "poly(hexamethylene biguanide) [polyhexamethylene biguanide]", "values": [{"measurement": "treatment of recurrences of Acanthamoeba keratitis", "setting": "Acanthamoeba keratitis [3]", "result": "successfully treated"}, {"measurement": "efficacy in experimental Aspergillus keratitis", "setting": "[4]", "result": "moderately effective"}, {"measurement": "response of Acanthamoeba keratitis to treatment", "setting": "Acanthamoeba keratitis [2]", "result": "respond well"}]}]}
